Measured values published in patent US10676467B2 (Washington University, priority 2017, dated 2020).
Several values for one entry are separate records, joined by “and”; a condition that tells them apart may be missing. Identical values can stand only once.

Assays:
[1] = target: S1P1 (Rattus norvegicus (Rat), UniProt P48303); assay: MicroPET and tracer kinetic modeling in EAE rat model, lumbar spinal cord; assay type: in vivo
Procedure: MicroPET scans were performed using an Inveon PET/CT system (Siemens Inc., Knoxville, Tenn.). […] Each rat was secured to a custom-designed acrylic bed equipped with a nosecone for gas anesthesia. PET/CT scans were conducted under 1.5-2% isoflurane anesthesia with the rat placed in transaxial position and centered with the T13 vertebral spine in the field of view. […] A list mode protocol was used with 60-min dynamic data acquisition.
PET image data was processed using filter back projection algorithm with attenuation and scatter corrections. The data were reconstructed per time frame employing an iterative reconstructional algorithm (three-dimensional ordered subset expectation maximization (3D-OSEM), maximum a posteriori (MAP)) and corrected for decay, random coincidences, scatter, and attenuation. […] Image data was analyzed using Inveon Research Workstation software IRW 4.2 (Siemens Inc., Knoxville, Tenn.). The regions of interest (ROI), the lumbar spinal cord and bilateral common carotid arteries, were drawn over the co-registered PET/CT images using the standard protocol published previously. Time-activity curves (TACs) were obtained and were expressed as % ID/g. A two-tailed t-test was used for the comparison of the tracer uptake in EAE rat lumbar spinal cord versus sham. A P value less than 0.05 was considered statistically significant. Time-activity curves were further analyzed using 2-tissue-compartment model (2TCM), as well as Logan graphical analysis, using the ROI over bilateral common carotid arteries for image-based arterial blood input function.

[2] = Ex vivo autoradiography of [18F]22b in rat brain; details: male SD rat, 60 min post-injection
Procedure: Frozen slides were directly exposed to a BAS storage phosphor screen film (BAS-IP-MS-2025) in an imaging cassette (Fuji Photo Film Co., Tokyo, Japan) for 12 h at -80° C. under the dark. The distribution of radioactivity was visualized by a Fuji Bio-Imaging Analyzer FLA-7000 (Fuji Photo Film Co., Tokyo, Japan). […] E. Toman, S. Spiegel, Lysophospholipid receptors in the nervous system, Neurochem. Res. 27 (2002) 619-627; […]. Tanaka, J. Aoki, H. Arai, S. Noji, Expression patterns of the lysophospholipid receptor genes during mouse early development, Dev. Dyn. […] Cytochem. 58 (2010) 847-856).

[3] = Ex vivo biodistribution in female Lewis rats; parameters: species or system rat
Excerpt: Organs of blood, heart, lung, muscle, fat, pancreas, spleen, kidney, liver, thymus, brain, and bone were dissected and collected for counting. All the samples were counted with a dilution of the injectate on an automated well counter (Beckman Gamma 8000 well counter). Tissues were weighed and the uptake was reported as background and decay-corrected percent injected dose per gram (% ID/g).
The whole brains were quickly harvested and dissected into regions of cerebellum, brain stem, cortex, striatum, thalamus, and hippocampus, the remainder of the brain was also collected to determine the total brain uptake. Organs of blood, heart, lung, muscle, fat, pancreas, spleen, kidney, liver, thymus, and bone were also dissected and collected for counting. All the samples were counted with a dilution of the injectate on an automated well counter (Beckman Gamma 8000 well counter). Tissues were weighed and the uptake was reported as background and decay-corrected percent injected dose per gram (% ID/g).

[4] = target: S1P1 (Mus musculus (Mouse), UniProt O08530); assay: In vitro autoradiography of [18F]22b in brain slices of LPS-treated mice, SEW2871 blocking; assay type: binding; details: brain sections of LPS-treated mice, ~6 nM tracer, 10 μM SEW2871, 60 min RT
Chain of S1P1 (Mus musculus (Mouse), UniProt O08530) (O08530 whole entry): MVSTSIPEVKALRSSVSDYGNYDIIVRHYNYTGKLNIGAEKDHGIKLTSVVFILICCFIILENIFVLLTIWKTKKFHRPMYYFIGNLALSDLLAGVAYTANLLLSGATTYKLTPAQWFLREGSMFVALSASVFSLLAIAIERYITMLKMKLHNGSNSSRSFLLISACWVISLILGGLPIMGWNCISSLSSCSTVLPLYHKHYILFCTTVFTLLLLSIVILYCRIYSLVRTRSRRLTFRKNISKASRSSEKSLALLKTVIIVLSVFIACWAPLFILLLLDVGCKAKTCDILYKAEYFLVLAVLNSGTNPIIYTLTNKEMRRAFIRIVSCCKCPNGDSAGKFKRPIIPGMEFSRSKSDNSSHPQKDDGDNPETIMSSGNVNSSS
Procedure: To confirm the binding specificity of [^18F]22b toward S1P1, in vitro autoradiography studies were performed using mouse brain slices that generated from LPS-induced murine neuroinflammation model, a widely used model for neuroinflammation, and the expression of S1P1 was activated in the mouse brain following the LPS injection according to the report (M. Kono, E. G. Conlon, S. Y. Lux, K. Yanagida, T. Hla, R. L. Proia, Bioluminescence imaging of G protein-coupled receptor activation in living mice, Nat. Commun. 8 (2017) 1163). Adult male C57BL/6 mice (20-25 g, Charles River Inc., Frederick, Md.) were used to generate LPS-induced neuroinflammation murine model. The mice (n=2) received an intraperitoneal injection of LPS from E. coli 055:65 (Sigma-Aldrich, St. Louis, Mo., USA) in saline (3 mg/mL) at dose of 15 mg/kg (5 mL/kg) and then euthanized at 24 h post-injection. Mouse brains were collected and cut into 20 μm sequential sections using a Microm cryotome and mounted on glass slides. […] The distribution of radioactivity was visualized by a Fuji Bio-Imaging Analyzer FLA-7000 (Fuji Photo Film, Tokyo, Japan). Photo-stimulated luminescence (PSL) from the brain slices was quantified using Multi Gauge v3.0 software (Fuji Photo Film Co., Tokyo, Japan). Data were background-corrected, and expressed as photo-stimulated luminescence signals per square millimeter (PSL/mm^2).

Chain of S1P1 (Rattus norvegicus (Rat), UniProt P48303) (P48303 whole entry): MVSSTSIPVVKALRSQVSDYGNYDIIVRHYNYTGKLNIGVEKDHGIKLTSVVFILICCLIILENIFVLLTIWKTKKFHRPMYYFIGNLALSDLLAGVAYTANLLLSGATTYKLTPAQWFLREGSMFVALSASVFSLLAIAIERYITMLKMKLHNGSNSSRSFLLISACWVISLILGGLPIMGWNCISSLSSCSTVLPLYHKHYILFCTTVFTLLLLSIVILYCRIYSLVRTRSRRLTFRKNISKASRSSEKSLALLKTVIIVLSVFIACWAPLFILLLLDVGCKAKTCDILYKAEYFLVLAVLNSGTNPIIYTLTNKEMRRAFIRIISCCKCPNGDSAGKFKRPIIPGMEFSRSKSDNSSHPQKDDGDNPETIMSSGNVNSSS

In the case of `OCc1cn(Cc2ccc(-c3noc(-c4ccc(OCC[18F])c(C(F)(F)F)c4)n3)cc2)nn1` [[^18F]22b], the “Visualization of rat lumbar spinal cord by microPET” value ([1]; EAE and sham rats) is reported as “not high enough for clear visualization”, the “Tracer uptake in lumbar spinal cord, EAE” value ([1]; EAE rats, summed % ID/g value, 10-60 min post injection, n=4) is reported as 0.47±0.05 % ID/g and the “Increase of tracer uptake in EAE rat lumbar spinal cord compared with shams” value ([1]; microPET, 10-60 min post injection, listed as 18F-TZ43113) is reported as ~37% and 36.7%. The “Tracer uptake in sham rat spinal cord (TAC)” value ([1]; sham rats, 10-60 min post injection) was “approximately 0.35 % ID/g”, the “Tracer uptake in lumbar spinal cord, sham” value ([1]; sham rats, summed % ID/g value, 10-60 min post injection, n=4) was 0.34±0.05 % ID/g and the “Blood-brain barrier crossing, rat brain” value [2] was “able to cross the BBB”. The “Tissue uptake, Blood” value ([3]; 5 min p.i., n = 4) was 0.49 % ID/g and 0.49 ± 0.07 % ID/g, the “Tissue uptake, Blood” value ([3]; 30 min p.i., n = 4) was 0.42 ± 0.05 % ID/g and the “Tissue uptake, Blood” value ([3]; 60 min p.i., n = 4) was 0.36 ± 0.02 % ID/g. For the same molecule, the “Tissue uptake, Blood” value ([3]; 120 min p.i., n = 4) was 0.35 ± 0.01 % ID/g, the “Tissue uptake, Bone” value ([3]; 5 min p.i., n = 4) was 0.55 % ID/g and 0.55 ± 0.05 % ID/g and the “Tissue uptake, Bone” value ([3]; 30 min p.i., n = 4) was 0.45 ± 0.03 % ID/g. The “Tissue uptake, Bone” value ([3]; 60 min p.i., n = 4) was 0.45 ± 0.01 % ID/g, the “Tissue uptake, Bone” value ([3]; 120 min p.i., n = 4) was 0.51 ± 0.05 % ID/g and the “Tissue uptake, Brain” value ([3]; 5 min p.i., n = 4) was 0.49 % ID/g and 0.49 ± 0.04 % ID/g. The “Tissue uptake, Brain” value ([3]; 30 min p.i., n = 4) was 0.57 % ID/g and 0.57 ± 0.02 % ID/g, the “Tissue uptake, Brain” value ([3]; 60 min p.i., n = 4) was 0.71 % ID/g and 0.71 ± 0.03 % ID/g and the “Tissue uptake, Brain” value ([3]; 60 min p.i., n = 4, listed as 18F-TZ43113) was 0.71 % ID/g. The “Tissue uptake, Brain” value ([3]; 120 min p.i., n = 4) was 0.61 % ID/g and 0.61 ± 0.05 % ID/g, the “Tissue uptake, Fat” value ([3]; 5 min p.i., n = 4) was 0.51 % ID/g and 0.51 ± 0.22 % ID/g and the “Tissue uptake, Fat” value ([3]; 30 min p.i., n = 4) was 0.62 ± 0.10 % ID/g. The “Tissue uptake, Fat” value ([3]; 60 min p.i., n = 4) was 0.69 ± 0.07 % ID/g, the “Tissue uptake, Fat” value ([3]; 120 min p.i., n = 4) was 0.57 ± 0.07 % ID/g and the “Tissue uptake, Heart” value ([3]; 5 min p.i., n = 4) was 1.65 % ID/g and 1.65 ± 0.27 % ID/g. The “Tissue uptake, Heart” value ([3]; 30 min p.i., n = 4) was 1.19 % ID/g and 1.19 ± 0.06 % ID/g, the “Tissue uptake, Heart” value ([3]; 60 min p.i., n = 4) was 1.05 ± 0.08 % ID/g and the “Tissue uptake, Heart” value ([3]; 120 min p.i., n = 4) was 0.94 ± 0.06 % ID/g. The “Tissue uptake, Kidney” value ([3]; 5 min p.i., n = 4) was 3.43 % ID/g and 3.43 ± 0.31 % ID/g, the “Tissue uptake, Kidney” value ([3]; 30 min p.i., n = 4) was 2.11 % ID/g and 2.11 ± 0.08 % ID/g and the “Tissue uptake, Kidney” value ([3]; 60 min p.i., n = 4) was 1.91 ± 0.10 % ID/g. The “Tissue uptake, Kidney” value ([3]; 120 min p.i., n = 4) was 1.62 ± 0.09 % ID/g, the “Tissue uptake, Liver” value ([3]; 5 min p.i., n = 4) was 5.69 % ID/g and 5.69 ± 0.60 % ID/g and the “Tissue uptake, Liver” value ([3]; 30 min p.i., n = 4) was 4.30 % ID/g and 4.30 ± 0.37 % ID/g. The “Tissue uptake, Liver” value ([3]; 60 min p.i., n = 4) was 4.21 ± 0.21 % ID/g, the “Tissue uptake, Liver” value ([3]; 120 min p.i., n = 4) was 3.66 ± 0.14 % ID/g and the “Tissue uptake, Lung” value ([3]; 5 min p.i., n = 4) was 2.79 % ID/g and 2.79 ± 0.57 % ID/g. The “Tissue uptake, Lung” value ([3]; 30 min p.i., n = 4) was 1.96 % ID/g and 1.96 ± 0.07 % ID/g, the “Tissue uptake, Lung” value ([3]; 60 min p.i., n = 4) was 1.67 ± 0.09 % ID/g and the “Tissue uptake, Lung” value ([3]; 120 min p.i., n = 4) was 1.54 ± 0.07 % ID/g. The “Tissue uptake, Muscle” value ([3]; 5 min p.i., n = 4) was 0.39 % ID/g and 0.39 ± 0.04 % ID/g, the “Tissue uptake, Muscle” value ([3]; 30 min p.i., n = 4) was 0.59 ± 0.05 % ID/g and the “Tissue uptake, Muscle” value ([3]; 60 min p.i., n = 4) was 0.51 ± 0.02 % ID/g. The “Tissue uptake, Muscle” value ([3]; 120 min p.i., n = 4) was 0.47 ± 0.02 % ID/g, the “Tissue uptake, Pancreas” value ([3]; 5 min p.i., n = 4) was 1.96 % ID/g and 1.96 ± 0.56 % ID/g and the “Tissue uptake, Pancreas” value ([3]; 30 min p.i., n = 4) was 1.89 ± 0.16 % ID/g. For the same molecule, the “Tissue uptake, Pancreas” value ([3]; 60 min p.i., n = 4) was 1.52 ± 0.25 % ID/g, the “Tissue uptake, Pancreas” value ([3]; 120 min p.i., n = 4) was 1.45 ± 0.15 % ID/g and the “Tissue uptake, Spleen” value ([3]; 5 min p.i., n = 4) was 2.22 % ID/g and 2.22 ± 0.23 % ID/g. The “Tissue uptake, Spleen” value ([3]; 30 min p.i., n = 4) was 1.36 % ID/g and 1.36 ± 0.04 % ID/g, the “Tissue uptake, Spleen” value ([3]; 60 min p.i., n = 4) was 1.27 ± 0.08 % ID/g and the “Tissue uptake, Spleen” value ([3]; 120 min p.i., n = 4) was 1.14 ± 0.10 % ID/g. The “Tissue uptake, Thymus” value ([3]; 5 min p.i., n = 4) was 0.69 % ID/g and 0.69 ± 0.08 % ID/g, the “Tissue uptake, Thymus” value ([3]; 30 min p.i., n = 4) was 0.83 ± 0.07 % ID/g and the “Tissue uptake, Thymus” value ([3]; 60 min p.i., n = 4) was 0.82 ± 0.04 % ID/g. The “Tissue uptake, Thymus” value ([3]; 120 min p.i., n = 4) was 0.78 ± 0.05 % ID/g, the “Defluorination in vivo (bone uptake 5 to 120 min)” value ([3]; bone radioactivity unchanged) was “no defluorination in vivo” and the “Regional brain uptake, brain stem” value ([3]; brain stem, 5 min p.i.) was 0.50 ID %/g. For the same molecule, the “Regional brain uptake, cerebellum” value ([3]; cerebellum, 5 min p.i.) was 0.53 ID %/g, the “Regional brain uptake, cortex” value ([3]; cortex, 5 min p.i.) was 0.59 ID %/g and the “Regional brain uptake, hippocampus” value ([3]; hippocampus, 5 min p.i.) was 0.43 ID %/g. For the same molecule, the “Time of maximum brain uptake” value ([3]; post injection) was 60 min, the “Regional brain uptake, striatum” value ([3]; striatum, 5 min p.i.) was 0.47 ID %/g and the “Regional brain uptake, thalamus” value ([3]; thalamus, 5 min p.i.) was 0.46 ID %/g. The “Reduction of tracer uptake by SEW2871 blocking” value [4] was ~36%.
